Data on one substance can be found in article PMC8073907, “Peptide targeting of lysophosphatidylinositol-sensing GPR55 for osteoclastogenesis tuning” (Cell Communication and Signaling : CCS, 2021).

One test deals with endogenous GPR55 (HeLa). As to the kind of experiment: LPI-induced ERK/p38 phosphorylation in shCTRL-HeLa clones (Western blot). Format: cell-based, human. The note with it: 10 µM soybean LPI, 10 min, mean of three independent experiments. Here is the method:
(§1) For stable interference of GPR55, HeLa cells were plated at 1.5 × 10^5 cells/well in six-well plates in growth medium without antibiotics, and 24 h later, the cells were transfected with 1.7 µg/well OmicsLink short hairpin (sh)RNA expression clone CSHCTR001-CU6 (shCTRL) or clone HSH022476-3-CU6 (shGPR55) from GeneCopoeia (Rockville, MD, USA), using Lipofectamine 2000, according the manufacturer instructions. Forty-eight hours after transfection, HeLa clones stably expressing shRNAs were selected in growth medium containing 0.3 µg/mL puromycin. The efficiency of interference was monitored by real-time PCR using the primers listed in the Additional file 1: Table S1. HPRT1 was followed as a housekeeping gene.
(§2) Twenty-four hours after transfection (HEK293T, HeLa cells or clones) or 72 h after interference (RAW264.7 cells), the cells were washed twice with HBSS^++, serum deprived (HEK293T cells for 4 h in DMEM; HeLa cells and clones for 2 h in MEM plus 2 mM glutamine and 25 mM HEPES; RAW264.7 cells for 2 h in DMEM), washed once again with HBSS^++, incubated in stimulation buffer (HBSS^++ with 10 mM HEPES, 0.4% faf-BSA for HEK293T cells; HBSS^++ with 25 mM HEPES and 0.01% faf-BSA for HeLa cells, clones, and RAW264.7 cells) in the absence or presence of stimuli, at 37 °C for the indicated times. Incubations were terminated by washing the cells twice with cold HBSS^++, and the analyses were performed as reported below.
Cell lysates were obtained by scraping the cells into phospho-lysis buffer: 50 mM Tris–HCl, pH 7.5, 100 mM NaCl, 5 mM EDTA, 1% Triton X-100, 50 mM NaF, 40 mM β-glycerophosphate, 200 µM sodium orthovanadate, plus protease and phosphatase inhibitors (Roche). Following gentle homogenisation by 20 passages through a 26-gauge needle, the lysates were centrifuged at 10,000×g for 5 min at 4 °C, and the supernatants were collected.
Protein lysates were subjected to SDS-PAGE, and after electrophoresis, the proteins were transferred to a nitrocellulose membrane (PerkinElmer Life Science, Boston, MA, USA). For immunoblotting, the membranes were blocked with 5% non-fat milk in TBS (10 mM Tris–HCl, pH 7.4, 10 mM NaCl) plus 0.1% Tween-20 (T-TBS) for 30 min at room temperature, and incubated with primary antibodies in T-TBS plus 3% BSA for 2 h at room temperature, or overnight at 4 °C. The membranes were washed twice in T-TBS for 7 min, and then incubated with secondary antibodies conjugated to horseradish peroxidase (1:5,000) (Calbiochem, San Diego, CA, USA) in T-TBS with 5% non-fat milk for 30 min at room temperature. The membranes were then washed twice with T-TBS and once with TBS for 5 min, and the signals were detected by ECL (Amersham Pharmacia, Piscataway, NJ, USA). The rabbit anti-phospho AKT (Ser473), anti-phospho p38 (Thr180/Tyr182), anti-phospho p42/44 (Thr202/Tyr204), anti-p38 (all at dilution 1:1000) were from Cell Signaling Technology (Danvers, MA, USA). The rabbit anti-AKT (B-1), and anti-p42/44 (ERK1; K-23) were from Santa Cruz Biotechnology.
Background: In western blotting, separated proteins are transferred to a membrane and probed.

For test [1], the system named is GPR55-silenced HeLa cells. Kind of test: LPI-induced ERK1/2 and p38 phosphorylation in shGPR55-HeLa clones (Western blot). The format is cell-based, human. Here is the method:
as §1, §2
Cell lysates were obtained by scraping the cells into phospho-lysis buffer: 50 mM Tris–HCl, pH 7.5, 100 mM NaCl, 5 mM EDTA, 1% Triton X-100, 50 mM NaF, 40 mM β-glycerophosphate, 200 µM sodium orthovanadate, plus protease and phosphatase inhibitors (Roche). […]
Protein lysates were subjected to SDS-PAGE, and after electrophoresis, the proteins were transferred to a nitrocellulose membrane (PerkinElmer Life Science, Boston, MA, USA). […] The membranes were then washed twice with T-TBS and once with TBS for 5 min, and the signals were detected by ECL (Amersham Pharmacia, Piscataway, NJ, USA). […]

A further test concerns RAW264.7 cells. As to the kind of experiment: Filamentous actin (phalloidin) FACS analysis of RAW264.7 cells. Format: cell-based, murine. The note with it: 10 µM soybean LPI. As to the method: For transient interference of Gpr55, RAW264.7 cells were plated at 6 × 10^5 cells/well in six-well plates in growth medium without antibiotics. Twenty-four hours later, the cells were transfected with 250 pmol/well non-targeting small-interfering (si)RNAs (si-NT; siGENOME siRNA Pool #2; D-001206-14; Dharmacon, Chicago, IL, USA) or Gpr55-specific siRNAs (si-GPR55; siGENOME mouse GPR55 SMART pool; M-043590-01; Dharmacon) using Lipofectamine LTX and Plus Reagent, according to the manufacturer instructions. Twenty-four hours later, the cells were plated for the different assays or for RNA extraction. The efficiency of interference was monitored by real-time PCR after 72 h of interference, using the primers listed in the Additional file 1: Table S1. β2-microglobulin was followed as a housekeeping gene.
Twenty-four hours after plating the RAW264.7 cells at a density of 1.2 × 10^6 cells/well in six-well plates, or 2.5 × 10^5 cells/well in 24-well plates on coverslips, the cells were serum deprived for 2 h and then stimulated while adhered, with LPI in the assay buffer (0.1% faf-BSA, 20 mM HEPES in HBSS^++). Stimulation was blocked by two washes with HBSS^++, and cells on coverslips were processed for immunofluorescence (see below), while the cells in the six-well plates were scraped into cytoskeleton buffer (10 mM 4-morpholineethanesulfonic acid, 150 mM NaCl, 5 mM EGTA, 5 mM MgCl2, 5 mM glucose), for FACS analysis. For the latter, an equal volume of fixation solution (1% Triton X-100, 0.5% glutaraldehyde, in cytoskeleton buffer) was added to the cell suspension and left for 2 min at room temperature. […] Finally, the fixed cells were stained with 33 nM Alexa546-labelled phalloidin for 1 h at room temperature, washed three times (10 min each) with cytoskeleton buffer, suspended in PBS with 3% BSA, and analysed by FACS (FACSCalibur or FACSAria III; Becton Dickinson, Franklin Lakes, NJ).
Background: A flow cytometer gives signals particle by particle.

Regarding lysophosphatidylinositol [LPI], in the test on endogenous GPR55 (HeLa), the “ERK2 phosphorylation upon LPI stimulation” value is given as 7.8 -fold basal levels and the “p38 phosphorylation upon LPI stimulation” value was 2.5 -fold basal levels. Besides, the “LPI response of empty vector (pcDNA3.1) transfected clones” value in test [1] (10 µM 18:0 LPI) is reported as “did not respond to LPI addition”. Moreover, in test [1] (10 µM soybean LPI, or 1 µM ionomycin 5 min), the “ERK1/2 and p38 activation” value was “did not show any ERK1/2 and p38 activation”. Moreover, the “mean phalloidin fluorescence on LPI addition, si-GPR55” value with RAW264.7 cells (si-GPR55 cells) is on record as “did not increase further on LPI addition”. In the test with RAW264.7 cells (si-NT cells), the “mean phalloidin fluorescence, si-NT” value is “significant increase in the mean phalloidin fluorescence”. Also, the “maximal increase in phalloidin mean fluorescence” value in the test with RAW264.7 cells (wild-type RAW264.7, 15 min, sub-populations #1 and #2, at least five independent experiments) came out at 20%.
